For data set [1], the system named is human teratocarcinoma NT2. Kind of data set: Microinjection of Aβ1-42 into NT2 cells, TUNEL. It counts as cell-based. To be noted: NT2, up to 8×10^−19 moles injected, 24 hours. Here is the method:
(§1) Human neuroblastoma M17 cells were cultured on ACLAR™ coverslips at 1×10^6 cells/ml in OPTI-MEM (Gibco-BRL) containing 5% FBS. Microinjection was performed when the cells reached 70-80% confluence on the coverslips. Human teratocarcinoma NT2 (Stratagene, La Jolla, Calif.) and neuroblastoma La-N-1 cells were cultured on ACLAR™ coverslips at 1×10^6 cells/ml in DMEM (Gibco-BRL) containing 10% FBS. Microinjection was performed when the cells were 50% confluent.
(§2) Microinjection. Thin-walled Borosilicate glass capillaries (OD 1.0 mm, ID 0.5 mm) with microfilament (MTW1OOF-4, World Precision Instrument, Sarasota, Fla.) were pulled with a Flaming/Brown Micropipefte Puller (β-87, Sutter, Novato, Calif.) to obtain injection needles with a tip diameter of ˜0.5 μm. Microinjection was performed in the cytosol of each cell using the Eppendorf Microinjector 5246 (Hamburg, Germany) and Burleigh Micromanipulator MIS-5000 (Victor, N.Y.). Human neurons were injected with 25 pl/shot at an injection pressure of 100 hPa, a compensation pressure of 50 hPa, and an injection time of 0.1 s. […]
(§3) Measurement of neuronal apoptosis. […] The percentage of cell death was determined as the ratio of the number of DTR-TLUNEL-double-positive cells over the total number of DIR-positive cells.

The subject of data set [2] is human neurons. Kind of data set: Exposure of human neurons to extracellular Aβ peptides, TUNEL and propidium iodide. It counts as cell-based. To be noted: 10 μM extracellular, 24 hours. Here is the method:
To test if this particular batch of peptide might be neurotoxic, neurons were treated with 10 μM of peptides for 24 hours.

Data set [3] has as its system primary human astrocytes. The data set is described as follows: Microinjection of Aβ1-42 into primary human astrocytes, TUNEL/Hoechst. To be noted: up to 100 nM / 8×10^−19 moles injected, 24 hours. It counts as cell-based. How it is done:
Cell cultures. Primary cultures of human neurons and astrocytes were prepared as described in LeBlanc, A., J. Neurosci. 15:7837-46 (1995), incorporated herein by reference. Fresh brain tissues were dissociated with 0.25% trypsin (Gibco-BRL) in phosphate buffered saline (PBS) at 37° C. for 15 minutes. The trypsin was inactivated. by adding 10% decomplemented fetal bovine serum (FBS, HyClone, Logan, Utah.) to the mixture. The dissociated tissues were triturated in 0.1 mg/ml DNaseI (Gibco-BRL) to obtain a homogeneous mixture. The mixture was filtered successively through 130 and 70 gm filters and centrifuged at […] for 10 minutes at 10° C. to pellet the cells. The cell pellet was washed once with PBS and once with minimal essential media (MEM, Gibco-BRL) in Earle's balanced salt solution containing 0.225% sodium bicarbonate, 1 mM sodium pyruvate, 2 mM L-glutamine, 0.1% dextrose, 1×antibiotic Pen-Strep (all from Gibco-BRL) and 5% decomplemented FBS. […]
Measurement of neuronal apoptosis. […] The percentage of cell death was determined as the ratio of the number of DTR-TLUNEL-double-positive cells over the total number of DIR-positive cells. […]
Cell death was identified by TUNEL staining and nuclei detected with Hoechst staining. […] The faint green fluorescence detected in these cells is the results of bleed-through from the red DTR fluorescence on the microscope.

Data set [4] relates to human neuroblastoma M17. The data set is described as follows: Microinjection of Aβ1-42 into M17 cells, TUNEL. In kind it is cell-based. The conditions noted are these: M17, up to 8×10^−19 moles injected, 24 hours. How it is done: as §1, §2, §3
The conditions of data set [5]: determined in a medium or extracellularly; cited from earlier work.
In data set [6] the test system is human neuroblastoma La-N-1. Kind of data set: Microinjection of Aβ1-42 into La-N-1 cells, TUNEL. It counts as cell-based. The conditions noted are these: La-N-1, up to 8×10^−19 moles injected, 24 hours. How it is done:
as §1, §2, §3

For data set [7], the system named is primary human neurons. Kind of data set: Microinjection of Aβ peptides into the cytosol of primary human neurons, cell death by TUNEL. In kind it is cell-based. To be noted: for number of molecules toxic (as few as / as little as): microinjected neurons. Here is the method:
Cell cultures. Primary cultures of human neurons and astrocytes were prepared as described in LeBlanc, A., J. Neurosci. 15:7837-46 (1995), incorporated herein by reference. Fresh brain tissues were dissociated with 0.25% trypsin (Gibco-BRL) in phosphate buffered saline (PBS) at 37° C. for 15 minutes. The trypsin was inactivated. by adding 10% decomplemented fetal bovine serum (FBS, HyClone, Logan, Utah.) to the mixture. The dissociated tissues were triturated in 0.1 mg/ml DNaseI (Gibco-BRL) to obtain a homogeneous mixture. The mixture was filtered successively through 130 and 70 gm filters and centrifuged at 15,000 g for 10 minutes at 10° C. to pellet the cells. The cell pellet was washed once with PBS and once with minimal essential media (MEM, Gibco-BRL) in Earle's balanced salt solution containing 0.225% sodium bicarbonate, 1 mM sodium pyruvate, 2 mM L-glutamine, 0.1% dextrose, 1×antibiotic Pen-Strep (all from Gibco-BRL) and 5% decomplemented FBS.
The cells were plated on poly-L-lysine-coated ACLARTM (Cat. No.: 33C; thickness: 0.5 mm; Allied Chemical, Minneapolis, Minn.) coverslips at a density of 3×10^6 cells/ml. Neurons and astrocytes were incubated at 37° C. in the MEM media with 5% CO2, and the media were changed every 48 hours. For neuron culture, 1 mM fluorodeoxyuridine (FDU, Gibco-BRL) was applied for the first 3 feedings and after that, used weekly to prevent proliferation of dividing cells. […] Microinjection or treatment was performed 10 days after plating for neurons and astrocytes.
Aβ peptides. Aβ peptides (Bachem, King of Prussia, Pa.) were dissolved in sterile distilled water at 25 μM and incubated at 37° C. for 5 days. The peptides stock solutions were frozen and diluted in 1×PBS immediately before microinjection. […] A 250 μl aliquot was diluted to 0.25 μM and immediately frozen at −20° C. in aliquots of 50 μl. The remaining solution was incubated at 37° C. in Eppendorf tubes with continuous mixing by inversion. After incubation, the samples were removed, vortexed, sonicated twice for 1 minute in a bath type sonicator (ELMA GmbH & Co. KG, Germany) and frozen at −20° C. in […]. Each aliquot was used once to avoid possible effects of freeze and thaw cycles.
(§4) Microinjection. Thin-walled Borosilicate glass capillaries (OD 1.0 mm, ID 0.5 mm) with microfilament (MTW1OOF-4, World Precision Instrument, Sarasota, Fla.) were pulled with a Flaming/Brown Micropipefte Puller (β-87, Sutter, Novato, Calif.) to obtain injection needles with a tip diameter of ˜0.5 μm. Microinjection was performed in the cytosol of each cell using the Eppendorf Microinjector 5246 (Hamburg, Germany) and Burleigh Micromanipulator MIS-5000 (Victor, N.Y.). Human neurons were injected with 25 pl/shot at an injection pressure of 100 hPa, a compensation pressure of 50 hPa, and an injection time of 0.1 s. Human astrocytes, M17, NT2 and La—N-1 cells were injected with 8 pl/shot at an injection pressure of 50 hPa, a compensation pressure of 30 hPa and an injection time of 0.1 s.
The diluted peptides were injected at the indicated concentrations with 100 μg/ml dextran Texas Red (DTR) (MW: 3000, Molecular Probes, Eugene, Oreg.) as a fluorescent marker to recognize the injected cells.
(§5) Measurement of neuronal apoptosis. Cells were fixed in freshly prepared 4% paraformaldehyde/4% sucrose for 20 minutes at room temperature and permeabilized in 0.1% Triton X-100, 0.1% sodium citrate on ice for 2 minutes. Terminal deoxynucleotidyl transferase-mediated dUTP nick end labeling (TUNEL) was performed using the In Situ Cell Death Detection Kit I as described by the manufacturer (Roche Molecular Biochemicals).

Data set [8] deals with baby hamster kidney (BHK) cell lines. Kind of data set: Microinjection of Aβ1-42 into BHK cells, TUNEL. The conditions noted are these: 24 hours. In kind it is cell-based.
Data set [9] has as its system NIH 3T3 fibroblasts. The data set is described as follows: Microinjection of Aβ1-42 into NIH 3T3 fibroblasts, TUNEL. It counts as cell-based, mice. The conditions noted are these: 24 hours.
Data set [10] relates to human neurons. Kind of data set: Neuronal cell death caused by the agent alone (without Aβ1-42). It counts as cell-based. To be noted: 20 mM, DTR-injected neurons, 24 hours. How it is done: as §5
Data set [11] deals with Aβ1-42-mediated neuronal cell death. The data set is described as follows: Inhibition of Aβ1-42-mediated neuronal cell death in Aβ1-42-microinjected neurons, TUNEL. In kind it is cell-based, human. To be noted: 20 mM, 1 hour pre-incubation, 24 hours. Here is the method: cDNA Clones. Human Bcl-2 cDNA, Bax α cDNA, and APP695 cDNA were cloned into pCep4β (Invitrogen Canada, Burlington, ON, Canada). The p53 wild type and p53R273H dominant negative cDNA may be cloned in the pCMV-NEO vector. These cDNAs were purified through GlassMAXTM (Gibco-BRL, Rockville, Mass.) and diluted at 30 ng/μl in PBS before injection.
Neutralizing Bax antibodies. Monoclonal anti-Bax 6A7 (amino acids 12-24: Pharmingen, San Diego, Calif.) and 2D2 (amino acids 3-16: Trevigen, Gaithersburg, Md.), polyclonal anti-Bax N-20 (Santa Cruz Biotechnology, Santa Cruz, Calif.), monoclonal anti-APP 22C11 (Roche Molecular Biochemicals, Laval, PQ, Canada), mouse IgG or rabbit sera were diluted at 50 μg/ml (for 6A7, 2D2, mouse IgG and 22C11) or 25 μg/ml (for polyclonal anti-Bax and rabbit sera) in PBS before use. A toxicity curve was done to determine this concentration as the highest non-toxic concentration that can be injected in neurons.
as §4
Measurement of neuronal apoptosis. Cells were fixed in freshly prepared 4% paraformaldehyde/4% sucrose for 20 minutes at room temperature and permeabilized in 0.1% Triton X-100, 0.1% sodium citrate on ice for 2 minutes. Terminal deoxynucleotidyl transferase-mediated dUTP nick end labeling (TUNEL) was performed using the In Situ Cell Death Detection Kit I as described by the manufacturer (Roche Molecular Biochemicals). The percentage of cell death was determined as the ratio of the number of DTR-TLUNEL-double-positive cells over the total number of DIR-positive cells.
Treatment with caspase inhibitors, cycloheximide, actinomycin D. Caspase pan inhibitor, Z-Valine-Alanine-Aspartic acid-fluoromethylketone (Z-VAD-fmk) (Biomol, Plymounth Meeting, PA); caspase-6 inhibitor, Z-Valine-Glutamic acid-Isoleucine-Aspartic acid-fmk (Z-VEID-fnk); caspase-3 inhibitor, Z-Aspartic acid-Glutamic acid-Valine-Aspartic acid-fmk (Z-DEVD-fmk); and caspase-8 inhibitor, Z-Isoleucine-Glutamic acid-Threomine-Aspartic acid-fmk (Z-IETD-fmk) (Sigma, Oakville, ON, Canada) were dissolved in 100% dimethylsulphoxide (DMSO, Sigma) at 5 mM and were diluted at 5 μM into culture medium immediately before use. The medium was changed every 48 hours.
Stock solutions of 5 mg/ml cycloheximide and 200 IM actinomycin D were made in sterile distilled water and diluted to 5 μg/ml for cycloheximide and 5 μM for actinomycin D in the culture medium immediately before use.
Dextran Texas Red (DTR) was co-injected with Aβ1-42 to identi the injected cells from the non-injected cells. The experiment was done on 200 microinjected neurons per preparation of neurons and on three independent neuron preparations.

Results on two compounds are retold here after patent US20040248766A1, “Selective inhibition of intracellular amyloid-beta neurotoxicity in human neurons” (priority 2001, published 2004).

Where “and” joins values, the source holds several entries; their conditions need not be identical. Equal values may be shown once. Entries after “also recorded” stand apart in the source; their conditions may differ.

For the compound “Aβ1-42: 42 amino acid amyloid β peptide (SEQ ID NO: 2), aged 5 days at 37° C.”, the “intracellular toxicity (in words)” value in [1] is recorded as “not observed to be toxic; also recorded: completely resist; also recorded: fails to induce cell death”; in [1] (listed as Aβ42), “remain resistant”; in data set [3], “not observed to be toxic; also recorded: completely resist; also recorded: do not show any sign of condensed chromatin by Hoechst staining, nor positive nuclei TUNEL staining”; in data set [3] (listed as Aβ42) it was “remain resistant”; in data set [4] it was “not observed to be toxic; also recorded: completely resist; also recorded: fails to induce cell death”; in [4] (listed as Aβ42), “remain resistant”. The “intracellular toxicity (in words)” value in [6] is “not observed to be toxic; also recorded: completely resist; also recorded: fails to induce cell death”; in [6] (listed as Aβ42) it was “remain resistant”; in data set [8], “not observed to be toxic; also recorded: fails to induce cell death”; in data set [9], “not observed to be toxic; also recorded: fails to induce cell death”. In addition, in data set [2], the “toxicity of extracellular peptide (in words)” value is “do not undergo cell death; also recorded: Neither extracellular Aβ1-40, Aβ1-42, or Aβ40-1 are toxic”. Moreover, in data set [5], the “toxic concentration known in the art” value is 10 to 100 µM. Besides, the “cell death of microinjected neurons” value in data set [7] (10 nM aged peptide, 48 hours after injection) turned out to be 78%; in data set [7] (100-fold dilution in the amount injected (25 pl/shot of 10 nM)), 50%. Further, the “amount delivered into the neuron cytosol sufficient to induce rapid neuronal death” value in [7] (25 pl/shot of 10 nM) was 2.5e-19 mol. In addition, the “apoptosis of microinjected neurons” value in data set [7] (25×10^−21 moles intracellular, within 24 hours after injection) was determined as 70%. The “number of molecules giving 50% toxicity” value in [7] (based on the Avogadro number) was determined as 1505.5 molecules/neuron. Besides, the “number of molecules injected giving maximal toxicity” value in [7] (based on the Avogadro number) is 150,055 molecules. Further, in [7] (calculated from injected moles and cytosolic volume 2.5 nL), the “toxic concentration of injected peptide in the cytosol” value is 1 pM and 1 to 100 pM. Besides, the “number of molecules toxic (as few as / as little as)” value in data set [7] stood at 1500 molecules; in data set [7] (listed as Aβ42) it was 150.5 molecules. Moreover, the “intracellular toxicity to human neurons (in words)” value in [7] (peptide microinjected into cytosol) is on record as “rapidly induces cell death”. In addition, in data set [7] (relative to 25×10^−21 moles/cell, FIG. 1C), the “reduction of concentration that still exerts significant toxicity” value was 100 to 1000 fold.
For the compound `[Cl-].[Li+]` [LiCl2], in data set [10], the “cell death with agent and DTR only (in words)” value is “did not undergo cell death”. In addition, in data set [11], the “protection against intracellular Aβ1-42 toxicity (in words)” value was “efficiently protected”.
